Source: ChEMBL document CHEMBL4811277, “Glycyrrhetinic acid derivatives as Zika virus inhibitors: Synthesis and antiviral activity in vitro” (Bioorg Med Chem, 2021)
Calls of active or inactive are those of the source. The calls are words filed in the database; no cut-off is given here.

What was measured:
Zika virus [1] = test: Antiviral activity against Zika virus infected in human SF-268 cells assessed as inhibition of virus-induced cytopathic effect at 10 uM measured at 96 hrs MTT assay; format: functional
Zika virus [2] = test: Antiviral activity against Zika virus infected in human SF-268 cells assessed as reduction in viral NS1 protein synthesis at 10 uM measured at 96 hrs by immunofluorescence assay relative to control; format: functional
Zika virus [3] = test: Antiviral activity against Zika virus infected in SF-268 cells assessed as inhibition of viral infection at entry stage measured after 96 hrs by DAPI staining based fluorescence microscopic analysis; format: functional, organism-based; conditions: SF-268, 96 h
[4] = Cytotoxicity against human SF-268 cells assessed as inhibition of cell viability measured after 96 hrs by MTT assay; format: cell-based
[5] = Therapeutic index, ratio of CC50 for cytotoxicity against human SF-268 cells to IC50 for antiviral activity against Zika virus infected in human SF-268 cells; format: toxicity, cell-based; conditions: read-out: TI
Zika virus [6] = test: Antiviral activity against Zika virus infected in SF-268 cells assessed as inhibition of viral infection at post entry stage after 96 hrs measured after 1 hr post infection by DAPI staining based fluorescence microscopic analysis; format: functional, organism-based
Zika virus [7] = test: Antiviral activity against Zika virus infected in human SF-268 cells assessed as reduction in viral infection by DAPI staining based immunofluorescence assay; format: functional, organism-based

SMILES | inhibition at 10 µM (Zika virus [1]) [%] | INH (Zika virus [2]) [%] | IC50 (Zika virus [3]) [nM] | CC50 at 96 h [4] [nM] | selectivity ratio [5] | IC50 (Zika virus [6]) [nM] | IC50 (Zika virus [7]) [nM] | inhibition (Zika virus [1])
COC(=O)[C@]1(C)C=C2C3=CC(=O)C4[C@@]5(C)CC/C(=N\NC(N)=O)C(C)(C)C5CC[C@@]4(C)[C@]3(C)CC[C@@]2(C)CC1 (some centres not stated) | 63 | 62.6 |  |  |  |  |  | 
COC(=O)[C@@]1(C)CC[C@]2(C)CC[C@]3(C)C(=CC(=O)C4[C@@]5(C)Cc6snnc6C(C)(C)C5CC[C@]43C)[C@@H]2C1 (some centres not stated) | > 70 | 74.9 | 620 | > 50000 | > 172 | 1940 | 290 | 
CCCCOC(=O)[C@@]1(C)CC[C@]2(C)CC[C@]3(C)C(=CC(=O)C4[C@@]5(C)CC/C(=N\NC(N)=O)C(C)(C)C5CC[C@]43C)[C@@H]2C1 (some centres not stated) | > 70 | 82.8 | 1090 | > 50000 | > 90.9 | 450 | 550 | 
CC(=O)O[C@H]1CC[C@@]2(C)C(CC[C@]3(C)C2C(=O)C=C2C4C[C@@](C)(C(=O)Nc5nc(-c6ccccc6)cs5)CC[C@]4(C)CC[C@]23C)C1(C)C (some centres not stated) |  | 52.3 |  |  |  |  |  | Active
CC(=O)O[C@H]1CC[C@@]2(C)C(CC[C@]3(C)C2C(=O)C=C2C4C[C@@](C)(C(=O)Nc5cccnc5)CC[C@]4(C)CC[C@]23C)C1(C)C (some centres not stated) | > 70 | 76.3 | 680 | > 50000 | > 384 | 1000 | 130 | 
COC(=O)[C@@]1(C)CC[C@]2(C)CC[C@]3(C)C(=CCC4[C@@]5(C)CC/C(=N\NC(N)=O)C(C)(C)C5CC[C@]43C)C2C1 (some centres not stated) |  | 49.9 |  |  |  |  |  | Active
COC(=O)[C@@]1(C)CC[C@]2(C)CC[C@]3(C)C(=CC(=O)C4[C@@]5(C)CC/C(=N\NC(N)=O)C(C)(C)C5CC[C@]43C)[C@@H]2C1 (some centres not stated) | 63 | 66.6 |  |  |  |  |  | 
CCCCOC(=O)[C@@]1(C)CC[C@]2(C)CC[C@]3(C)C(=CC(=O)C4[C@@]5(C)Cc6snnc6C(C)(C)C5CC[C@]43C)[C@@H]2C1 (some centres not stated) | > 70 | 82.1 | 500 | > 50000 | > 89.3 | 430 | 560 | 
CC(=O)O[C@H]1CC[C@@]2(C)C(CC[C@]3(C)C2C(=O)C=C2C4C[C@@](C)(C(=O)Nc5cnc6ccccc6c5)CC[C@]4(C)CC[C@]23C)C1(C)C (some centres not stated) |  | 26.5 |  |  |  |  |  | Active
COC(=O)[C@@]1(C)CC[C@]2(C)CC[C@]3(C)C(=CCC4[C@@]5(C)Cc6snnc6C(C)(C)C5CC[C@]43C)C2C1 (some centres not stated) |  | 55.4 |  |  |  |  |  | Active
COC(=O)[C@@]1(C)CC[C@]2(C)CC[C@]3(C)C(=CCC4[C@@]5(C)CC/C(=N\NC(N)=S)C(C)(C)C5CC[C@]43C)C2C1 (some centres not stated) |  | 49.5 |  |  |  |  |  | Active
